Source: article PMC7291858, “An Enhanced Variant Designed From DLP4 Cationic Peptide Against Staphylococcus aureus CVCC 546” (Frontiers in Microbiology, 2020)
Peptide text beside a SMILES is read from it.

system: S. aureus ATCC 43300; type: cell-based, Staphylococcus aureus; conditions: microtiter, serial 2-fold dilutions, 37°C, 16∼20 h, triplicate; – = no activity
Protocol: The minimal inhibitory concentration (MIC) was evaluated by a microtiter plate assay ([Wiegand et al., 2008]). Serial 2-fold dilutions of test peptides were placed into a 96-well plate containing identical bacterial inoculum and incubated at 37°C for 16∼20 h. Vancomycin was used as antibiotic control. The MIC value was defined as the lowest peptide concentration where no visible growth occurred. All tests were made in triplicate.

SMILES	A1 (MIC against S. aureus ATCC 43300)
CC[C@H](C)[C@@H]1NC(=O)[C@@H]2CSSC[C@@H](C(=O)N[C@@H](CCCNC(=N)N)C(=O)N[C@@H](CCCCN)C(=O)O)NC(=O)[C@H](CC(N)=O)NC(=O)[C@@H]3CSSC[C@H](NC(=O)[C@H](C)NC(=O)[C@H](C)NC(=O)[C@H](Cc4c[nH]cn4)NC(=O)CNC(=O)[C@H](C(C)C)NC(=O)[C@H](CCCCN)NC(=O)[C@H](Cc4ccccc4)NC(=O)[C@@H]4CCCN4C(=O)[C@H](CO)NC(=O)[C@H]([C@@H](C)CC)NC(=O)[C@H](CC(C)C)NC(=O)[C@H](CC(=O)O)NC(=O)[C@@H](NC(=O)[C@@H](NC(=O)[C@H](C)N)[C@@H](C)O)CSSC[C@H](NC(=O)[C@H](Cc4c[nH]c5ccccc45)NC(=O)CNC(=O)CNC(=O)[C@H](CCCNC(=N)N)NC(=O)[C@H](CCCCN)NC(=O)CNC(=O)[C@H](CCCNC(=N)N)NC(=O)[C@H](C)NC1=O)C(=O)N[C@@H](CC(=O)O)C(=O)N[C@@H](CCCCN)C(=O)N[C@@H](CCCNC(=N)N)C(=O)N[C@@H](C)C(=O)N[C@@H](C(C)C)C(=O)N3)C(=O)N[C@@H](C)C(=O)N[C@@H](C)C(=O)N[C@@H](Cc1c[nH]cn1)C(=O)N2 [ID5] (HELM PEPTIDE1{A.T.C.D.L.I.S.P.F.K.V.G.H.A.A.C.A.A.H.C.I.A.R.G.K.R.G.G.W.C.D.K.R.A.V.C.N.C.R.K}$PEPTIDE1,PEPTIDE1,3:R3-30:R3|PEPTIDE1,PEPTIDE1,16:R3-36:R3|PEPTIDE1,PEPTIDE1,20:R3-38:R3$$$V2.0; N-terminus and C-terminus assumed; bridges inferred)	16 µg/mL
CC[C@H](C)[C@@H]1NC(=O)[C@@H]2CSSC[C@@H](C(=O)N[C@@H](CCCNC(=N)N)C(=O)N[C@@H](CCCCN)C(=O)O)NC(=O)[C@H](CC(N)=O)NC(=O)[C@@H]3CSSC[C@H](NC(=O)[C@H](C)NC(=O)[C@H](C)NC(=O)[C@H](Cc4c[nH]cn4)NC(=O)CNC(=O)[C@H](C(C)C)NC(=O)[C@H](CCCCN)NC(=O)[C@H](Cc4ccccc4)NC(=O)[C@@H]4CCCN4C(=O)[C@H](CO)NC(=O)[C@H](CC(C)C)NC(=O)[C@H](CC(C)C)NC(=O)[C@H](CC(=O)O)NC(=O)[C@@H](NC(=O)[C@@H](NC(=O)[C@H](C)N)[C@@H](C)O)CSSC[C@H](NC(=O)[C@H](Cc4c[nH]c5ccccc45)NC(=O)CNC(=O)CNC(=O)[C@H](CCCNC(=N)N)NC(=O)[C@H](CC(N)=O)NC(=O)CNC(=O)[C@H](CCCNC(=N)N)NC(=O)[C@H](C)NC1=O)C(=O)N[C@@H](CC(=O)O)C(=O)NCC(=O)N[C@@H](CCCNC(=N)N)C(=O)N[C@@H](C)C(=O)N[C@@H](C(C)C)C(=O)N3)C(=O)N[C@@H](C)C(=O)N[C@@H](C)C(=O)N[C@@H](Cc1c[nH]cn1)C(=O)N2 [ID18] (HELM PEPTIDE1{A.T.C.D.L.L.S.P.F.K.V.G.H.A.A.C.A.A.H.C.I.A.R.G.N.R.G.G.W.C.D.G.R.A.V.C.N.C.R.K}$PEPTIDE1,PEPTIDE1,3:R3-30:R3|PEPTIDE1,PEPTIDE1,16:R3-36:R3|PEPTIDE1,PEPTIDE1,20:R3-38:R3$$$V2.0; N-terminus and C-terminus assumed; bridges inferred)	16 µg/mL
CC[C@H](C)[C@@H]1NC(=O)[C@@H]2CSSC[C@@H](C(=O)N[C@@H](CCCNC(=N)N)C(=O)N[C@@H](CCCCN)C(=O)O)NC(=O)[C@H](CC(N)=O)NC(=O)[C@@H]3CSSC[C@H](NC(=O)[C@H](C)NC(=O)[C@H](C)NC(=O)[C@H](Cc4c[nH]cn4)NC(=O)[C@H](CCCCN)NC(=O)[C@H](C(C)C)NC(=O)[C@H](CCCCN)NC(=O)[C@H](Cc4ccccc4)NC(=O)[C@@H]4CCCN4C(=O)[C@H](CO)NC(=O)[C@H](CC(C)C)NC(=O)[C@H](CC(C)C)NC(=O)[C@H](CC(=O)O)NC(=O)[C@@H](NC(=O)[C@@H](NC(=O)[C@H](C)N)[C@@H](C)O)CSSC[C@H](NC(=O)[C@H](Cc4c[nH]c5ccccc45)NC(=O)CNC(=O)CNC(=O)[C@H](CCCNC(=N)N)NC(=O)[C@H](CCCCN)NC(=O)CNC(=O)[C@H](CCCNC(=N)N)NC(=O)[C@H](C)NC1=O)C(=O)N[C@@H](CC(=O)O)C(=O)N[C@@H](CCCCN)C(=O)N[C@@H](CCCNC(=N)N)C(=O)N[C@@H](C)C(=O)N[C@@H](C(C)C)C(=O)N3)C(=O)N[C@@H](C)C(=O)N[C@@H](C)C(=O)N[C@@H](Cc1c[nH]cn1)C(=O)N2 [ID9] (HELM PEPTIDE1{A.T.C.D.L.L.S.P.F.K.V.K.H.A.A.C.A.A.H.C.I.A.R.G.K.R.G.G.W.C.D.K.R.A.V.C.N.C.R.K}$PEPTIDE1,PEPTIDE1,3:R3-30:R3|PEPTIDE1,PEPTIDE1,16:R3-36:R3|PEPTIDE1,PEPTIDE1,20:R3-38:R3$$$V2.0; N-terminus and C-terminus assumed; bridges inferred)	16 µg/mL
CC[C@H](C)[C@@H]1NC(=O)[C@@H]2CSSC[C@@H](C(=O)N[C@@H](CCCNC(=N)N)C(=O)N[C@@H](CCCCN)C(=O)O)NC(=O)[C@H](CC(N)=O)NC(=O)[C@@H]3CSSC[C@H](NC(=O)[C@H](C)NC(=O)[C@H](C)NC(=O)[C@H](Cc4c[nH]cn4)NC(=O)CNC(=O)[C@H](C(C)C)NC(=O)[C@H](CCCCN)NC(=O)[C@H](Cc4ccccc4)NC(=O)[C@H](CCCCN)NC(=O)[C@H](CO)NC(=O)[C@H](CC(C)C)NC(=O)[C@H](CC(C)C)NC(=O)[C@H](CC(=O)O)NC(=O)[C@@H](NC(=O)[C@@H](NC(=O)[C@H](C)N)[C@@H](C)O)CSSC[C@H](NC(=O)[C@H](Cc4c[nH]c5ccccc45)NC(=O)CNC(=O)CNC(=O)[C@H](CCCNC(=N)N)NC(=O)[C@H](CCCCN)NC(=O)CNC(=O)[C@H](CCCNC(=N)N)NC(=O)[C@H](C)NC1=O)C(=O)N[C@@H](CC(=O)O)C(=O)N[C@@H](CCCCN)C(=O)N[C@@H](CCCNC(=N)N)C(=O)N[C@@H](C)C(=O)N[C@@H](C(C)C)C(=O)N3)C(=O)N[C@@H](C)C(=O)N[C@@H](C)C(=O)N[C@@H](Cc1c[nH]cn1)C(=O)N2 [ID8] (HELM PEPTIDE1{A.T.C.D.L.L.S.K.F.K.V.G.H.A.A.C.A.A.H.C.I.A.R.G.K.R.G.G.W.C.D.K.R.A.V.C.N.C.R.K}$PEPTIDE1,PEPTIDE1,3:R3-30:R3|PEPTIDE1,PEPTIDE1,16:R3-36:R3|PEPTIDE1,PEPTIDE1,20:R3-38:R3$$$V2.0; N-terminus and C-terminus assumed; bridges inferred)	32 µg/mL
CC[C@H](C)[C@@H]1NC(=O)[C@@H]2CSSC[C@@H](C(=O)N[C@@H](CCCNC(=N)N)C(=O)N[C@@H](CCCCN)C(=O)O)NC(=O)[C@H](CC(N)=O)NC(=O)[C@@H]3CSSC[C@H](NC(=O)[C@H](C)NC(=O)[C@H](C)NC(=O)[C@H](Cc4c[nH]cn4)NC(=O)CNC(=O)[C@H](C(C)C)NC(=O)CNC(=O)[C@H](Cc4ccccc4)NC(=O)[C@@H]4CCCN4C(=O)[C@H](CO)NC(=O)[C@H](CC(C)C)NC(=O)[C@H](CC(C)C)NC(=O)[C@H](CC(=O)O)NC(=O)[C@@H](NC(=O)[C@@H](NC(=O)[C@H](C)N)[C@@H](C)O)CSSC[C@H](NC(=O)[C@H](Cc4c[nH]c5ccccc45)NC(=O)CNC(=O)CNC(=O)[C@H](CCCNC(=N)N)NC(=O)[C@H](CCCCN)NC(=O)CNC(=O)[C@H](CCCNC(=N)N)NC(=O)[C@H](C)NC1=O)C(=O)N[C@@H](CC(=O)O)C(=O)N[C@@H](CCCCN)C(=O)N[C@@H](CCCNC(=N)N)C(=O)N[C@@H](C)C(=O)N[C@@H](C(C)C)C(=O)N3)C(=O)N[C@@H](C)C(=O)N[C@@H](C)C(=O)N[C@@H](Cc1c[nH]cn1)C(=O)N2 [ID11] (HELM PEPTIDE1{A.T.C.D.L.L.S.P.F.G.V.G.H.A.A.C.A.A.H.C.I.A.R.G.K.R.G.G.W.C.D.K.R.A.V.C.N.C.R.K}$PEPTIDE1,PEPTIDE1,3:R3-30:R3|PEPTIDE1,PEPTIDE1,16:R3-36:R3|PEPTIDE1,PEPTIDE1,20:R3-38:R3$$$V2.0; N-terminus and C-terminus assumed; bridges inferred)	16 µg/mL
CC[C@H](C)[C@@H]1NC(=O)[C@@H]2CSSC[C@@H](C(=O)N[C@@H](CCCNC(=N)N)C(=O)N[C@@H](CCCCN)C(=O)O)NC(=O)[C@H](CC(N)=O)NC(=O)[C@@H]3CSSC[C@H](NC(=O)[C@H](C)NC(=O)[C@H](C)NC(=O)[C@H](Cc4c[nH]cn4)NC(=O)CNC(=O)[C@H](C(C)C)NC(=O)[C@H](CCCCN)NC(=O)[C@H](Cc4ccccc4)NC(=O)[C@@H]4CCCN4C(=O)[C@H](CO)NC(=O)[C@H](CC(C)C)NC(=O)[C@H](CC(C)C)NC(=O)[C@H](CC(=O)O)NC(=O)[C@@H](NC(=O)[C@@H](NC(=O)[C@H](C)N)[C@@H](C)O)CSSC[C@H](NC(=O)[C@H](Cc4c[nH]c5ccccc45)NC(=O)CNC(=O)CNC(=O)[C@H](CCCNC(=N)N)NC(=O)[C@H](CCCCN)NC(=O)CNC(=O)[C@H](CCCNC(=N)N)NC(=O)[C@H](C)NC1=O)C(=O)N[C@@H](CC(N)=O)C(=O)N[C@@H](CCCCN)C(=O)N[C@@H](CCCNC(=N)N)C(=O)N[C@@H](C)C(=O)N[C@@H](C(C)C)C(=O)N3)C(=O)N[C@@H](C)C(=O)N[C@@H](C)C(=O)N[C@@H](Cc1c[nH]cn1)C(=O)N2 [ID10] (HELM PEPTIDE1{A.T.C.D.L.L.S.P.F.K.V.G.H.A.A.C.A.A.H.C.I.A.R.G.K.R.G.G.W.C.N.K.R.A.V.C.N.C.R.K}$PEPTIDE1,PEPTIDE1,3:R3-30:R3|PEPTIDE1,PEPTIDE1,16:R3-36:R3|PEPTIDE1,PEPTIDE1,20:R3-38:R3$$$V2.0; N-terminus and C-terminus assumed; bridges inferred)	16 µg/mL
